The source made the active and inactive calls. No cut-off for these calls is given here.
Tests used:
[1] = tested on: HCT-116; test: Induction of cell cycle arrest in human HCT-116 cells assessed as accumulation of cells at S phase at 10 uM incubated for 24 hrs in presence of 1-Deoxynojirimycin by flow cytometric analysis (reference value: 4.7 %); format: functional
[2] = tested on: HCT-116; test: Induction of cell cycle arrest in human HCT-116 cells assessed as accumulation of cells at S phase at 10 uM incubated for 24 hrs by flow cytometric analysis (reference value: 4.7 %); format: functional
[3] = tested on: HCT-116; test: Induction of apoptosis in human HCT-116 cells assessed as apoptotic cells at 10 uM incubated for 24 hrs in presence of 1-Deoxynojirimycin by Annexin V-FITC/PI staining based flow cytometric analysis relative to control; format: functional
[4] = tested on: HeLa; test: Cytotoxicity against human HeLa cells assessed as inhibition of cell proliferation incubated for 48 hrs by MTT assay; format: functional, cell-based
[5] = tested on: A549; test: Cytotoxicity against human A549 cells assessed as inhibition of cell proliferation incubated for 48 hrs by MTT assay; format: functional, cell-based; conditions: A549, 48 h
[6] = tested on: L02; test: Cytotoxicity against human L02 cells assessed as inhibition of cell proliferation incubated for 48 hrs by MTT assay; format: functional, cell-based; conditions: L02, 48 h
[7] = tested on: HCC1937; test: Cytotoxicity against human HCC1937 cells assessed as inhibition of cell proliferation incubated for 48 hrs by MTT assay; format: functional, cell-based; conditions: HCC1937, 48 h
[8] = Selectivity index, ratio of IC50 for cytotoxicity against human L02 cells to IC50 for cytotoxicity against human HCT-116 cells; format: toxicity, cell-based; conditions: L02 cells and HCT-116 cells, read-out: Ratio IC50
[9] = tested on: HCT-116; test: Anti-metastatic activity in human HCT-116 cells assessed as inhibition of cell migration by measuring wound healing rate at 10 uM incubated for 24 hrs in presence of 1-Deoxynojirimycin by inverted fluorescence microscopic analysis relative to control; format: functional; set-up: scale not given: the % may be the effect or the level left
[10] = tested on: HCT-116; test: Induction of apoptosis in human HCT-116 cells assessed as apoptotic cells at 10 uM incubated for 24 hrs by Annexin V-FITC/PI staining based flow cytometric analysis relative to control; format: functional
[11] = tested on: HCT-116; test: Anti-metastatic activity in human HCT-116 cells assessed as inhibition of cell migration by measuring wound healing rate at 10 uM incubated for 24 hrs by inverted fluorescence microscopic analysis relative to control; format: functional; set-up: scale not given: the % may be the effect or the level left
[12] = tested on: HepG2; test: Cytotoxicity against human HepG2 cells assessed as inhibition of cell proliferation incubated for 48 hrs by MTT assay; format: functional, cell-based; conditions: HepG2, 48 h
[13] = tested on: HCT-116; test: Cytotoxicity against human HCT-116 cells assessed as inhibition of cell proliferation incubated for 48 hrs by MTT assay; format: functional, cell-based; conditions: HCT-116, 48 h
[14] = tested on: BGC-823; test: Cytotoxicity against human BGC-823 cells assessed as inhibition of cell proliferation incubated for 48 hrs by MTT assay; format: functional, cell-based; conditions: BGC-823, 48 h
[15] = tested on: Mitochondrial membrane; test: Induction of mitochondrial membrane potential loss in human HCT-116 cells assessed as decrease in red fluorescence at 10 uM incubated for 24 hrs by JC-1 staining based fluorescence microscopic analysis; format: cell membranes
[16] = tested on: HCT-116; test: Cytotoxicity against human HCT-116 cells assessed as inhibition of cell proliferation at 5 to 10 uM preincubated with NAC for 3 hrs followed by compound addition and measured after 48 hrs by MTT assay; format: functional, cell-based; conditions: dose 5-10 µM
[17] = tested on: HCT-116; test: Induction of apoptosis in human HCT-116 cells assessed as downregulation of Bcl2 protein level at 10 uM incubated for 24 hrs by Western blot analysis; format: functional, cell-based
[18] = tested on: HCT-116; test: Induction of oxidative stress in human HCT-116 cells assessed as decrease in SOD concentration at 5 to 10 uM incubated for 24 hrs; format: functional, cell-based; conditions: dose 5-10 µM
[19] = tested on: HCT-116; test: Induction of oxidative stress in human HCT-116 cells assessed as increase in NO level at 5 to 10 uM incubated for 24 hrs; format: functional, cell-based; conditions: dose 5-10 µM
[20] = tested on: HCT-116; test: Inhibition of colony formation in human HCT-116 cells at 5 to 10 uM incubated for 48 hrs by crystal purple staining based analysis; format: functional, cell-based; conditions: dose 5-10 µM
[21] = tested on: HCT-116; test: Induction of DNA damage in human HCT-116 cells assessed as increase in TS protein expression at 10 uM incubated for 24 hrs by Western blot analysis; format: functional, cell-based
[22] = tested on: HCT-116; test: Induction of apoptosis in human HCT-116 cells assessed as appearance of bright blue appearance at 10 uM incubated for 24 hrs by Hoechst 33342 staining based fluorescence microscopic analysis; format: functional, cell-based
[23] = tested on: HCT-116; test: Induction of oxidative stress in human HCT-116 cells assessed as increase in MDA level at 5 to 10 uM incubated for 24 hrs by Lipid Peroxidation MDA assay; format: functional, cell-based; conditions: dose 5-10 µM
[24] = Potency index, ratio of 1-Deoxynojirimycin IC50 to test compound IC50 for cytotoxicity against human HCT-116 cells assessed as inhibition of cell proliferation incubated for 48 hrs by MTT assay; format: functional
[25] = tested on: HCT-116; test: Induction of oxidative stress in human HCT-116 cells assessed as decrease in GSH concentration at 5 to 10 uM incubated for 24 hrs; format: functional, cell-based; conditions: dose 5-10 µM
[26] = target: Alpha glucosidase (Homo sapiens, UniProt O43451+P10253+P14410+Q2M2H8); test: Inhibition of alpha-glucosidase (unknown origin) using para-nitrophenyl-alpha-d-glucopyranoside as substrate preincubated for 5 mins followed by substrate addition and measured after 30 mins by microplate reader; format: protein assay
[27] = tested on: HCT-116; test: Induction of apoptosis in human HCT-116 cells assessed as cell contraction at 10 uM incubated for 24 hrs by Hoechst 33342 staining based fluorescence microscopic analysis; format: functional
[28] = tested on: HCT-116; test: Induction of ROS accumulation in human HCT-116 cells assessed as increase in green fluorescence intensity at 5 to 10 uM preincubated with NAC for 3 hrs followed by compound addition and measured after 24 hrs by DCFH-DA staining based fluorescence microscopic analysis; format: functional, cell-based; conditions: dose 5-10 µM
[29] = tested on: HCT-116; test: Induction of ROS accumulation in human HCT-116 cells assessed as increase in green fluorescence intensity at 5 to 10 uM incubated for 24 hrs by DCFH-DA staining based fluorescence microscopic analysis; format: functional, cell-based; conditions: dose 5-10 µM
[30] = tested on: HCT-116; test: Induction of oxidative stress in human HCT-116 cells assessed as decrease in Nrf2 level at 10 uM incubated for 24 hrs by Western blot analysis; format: functional, cell-based
[31] = Lipophilicity, logP of compound in n-octanol saturated PBS incubated for 24 hrs by shake-flask method based ultraviolet spectrophotometry; format: physicochemical
[32] = tested on: HCT-116; test: Induction of apoptosis in human HCT-116 cells assessed as upregulation of Bax protein level at 10 uM incubated for 24 hrs by Western blot analysis; format: functional, cell-based
[33] = tested on: HCT-116; test: Anti-metastatic activity in human HCT-116 cells assessed as inhibition of cell migration by measuring wound healing rate at 10 uM incubated for 24 hrs in presence of tegafur by inverted fluorescence microscopic analysis relative to control; format: functional; set-up: scale not given: the % may be the effect or the level left
[34] = tested on: HCT-116; test: Induction of apoptosis in human HCT-116 cells assessed as apoptotic cells at 10 uM incubated for 24 hrs in presence of tegafur by Annexin V-FITC/PI staining based flow cytometric analysis relative to control; format: functional
[35] = tested on: HCT-116; test: Induction of cell cycle arrest in human HCT-116 cells assessed as accumulation of cells at S phase at 10 uM incubated for 24 hrs in presence of tegafur by flow cytometric analysis (reference value: 4.7 %); format: functional

IC50 [26] | logP at 24 h [31] | SMILES | Activity [2] | IC50 [4] | IC50 [5] | IC50 [6] | IC50 [7] | selectivity ratio [8] | Activity [10] | Activity [11] | IC50 [12] | IC50 [13] | IC50 [14] | also measured
2.76 µM | 1.02 | O=c1c(F)cn(C2CCCO2)c(=O)n1CCCCCCCCCCCN1C[C@H](O)[C@@H](O)[C@H](O)[C@H]1CO (some centres not stated) | 49.31% | 13 µM | 6.34 µM | 19.7 µM | 9.14 µM | 14.4 | 69.8% | 9.42% | 7.72 µM | 1.37 µM | 4.35 µM | Activity [15]: Active; Activity [16]: inactive; Activity [17]: Active; Activity [18]: Active; Activity [19]: Active; inhibition [20]: Active; Activity [21]: Active; Activity [22]: Active; Activity [23]: Active; Ratio IC50 [24]: 73; Activity [25]: Active; Activity [27]: Active; Activity [28]: inactive; Activity [29]: Active; Activity [30]: Active; Activity [32]: Active
15.09 µM | -0.65 | O=c1c(F)cn(C2CCCO2)c(=O)n1CCCCCCCCN1C[C@H](O)[C@@H](O)[C@H](O)[C@H]1CO (some centres not stated) | – | 26.8 µM | 19.4 µM | 29.3 µM | 19.7 µM | 4 | – | – | 14.8 µM | 7.32 µM | 12.5 µM | –

The remaining lines, values behind:

SMILES | IC50 [26] | logP at 24 h [31] | Activity [2] | IC50 [4] | IC50 [5] | IC50 [6] | IC50 [7] | selectivity ratio [8] | Activity [10] | Activity [11] | IC50 [12] | IC50 [13] | IC50 [14] | also measured
O=c1[nH]c(=O)n(C2CCCO2)cc1F (configuration not stated) [TEGAFUR] | – | – | 43.81% | 96.1 µM | > 100 µM | 23.5 µM | > 100 µM | 0.27 | 8.99% | 44.37% | > 100 µM | 88.6 µM | 99.4 µM | Activity [1]: 34.84%; Activity [3]: 15.17%; Activity [9]: 32%
OC[C@H]1NC[C@H](O)[C@@H](O)[C@@H]1O [DUVOGLUSTAT] | – | -0.68 | 11.29% | > 100 µM | > 100 µM | > 100 µM | > 100 µM | – | 6.16% | 51.91% | > 100 µM | > 100 µM | > 100 µM | Activity [33]: 32%; Activity [34]: 15.17%; Activity [35]: 34.84%
O=c1c(F)cn(C2CCCO2)c(=O)n1CCCCCN1C[C@H](O)[C@@H](O)[C@H](O)[C@H]1CO (some centres not stated) | 40.96 µM | -2.49 | – | 29.3 µM | 57.6 µM | 56.3 µM | 43.2 µM | 3.6 | – | – | 40.7 µM | 15.6 µM | 38.6 µM | –
